Source: US8080571B2, “Tricyclic angiotensin II agonists” (Vicore Pharma AB, priority 2005, dated 2011)

Test system: duodenal mucosa
Assay: Test C: duodenal mucosal alkaline secretion assay
Type: in vivo, rat
Details: co-administration of the AT2 receptor antagonist with title compounds
From the text: Duodenal Mucosal Alkaline Secretion Assay
Compounds were exposed to the duodenal mucosa in barbiturate-anaesthetised rats prepared for in situ titration of duodenal mucosal alkaline secretion, according to the methodology described by Flemström et al in Am. J. Physiol. (1982) 243, G348.

Cc1cc(Cn2cnc3c2C[C@@H](C(=O)O)N(C(=O)C(c2ccccc2)c2ccccc2)C3)ccc1N(C)C [PD123319]
effect on the stimulation of mucosal alkalisation by the title compounds: blocked
